How the values were obtained:
E. coli (ATCC 25922) = test: standard broth dilutions susceptibility test, read at 600 nm; format: cell-based
Method: The following methods were used to conduct the experiments described in Examples 1-3, below: The experiments were conducted using the standard broth dilutions susceptibility test (Jorgensen, J. H.; Turnidge, J. D., Susceptibility test methods: dilution and disk diffusion methods. In Manual of Clinical Microbiology, Eleventh Edition, American Society of Microbiology: 2015; pp 1253-73). Briefly, 1 μl of glycerol stock aliquot of E. coli (ATCC 25922) was inculcated into Tryptic Soya agar (TSA) (Sigma Aldrich 22091) plates and incubated at 37° C. for 24 hrs. Subsequently, 3-5 separate colonies were selected and transferred into 4 ml Tryptic Soya broth (TSB) (Sigma Aldrich 22092) and incubated at 37° C. for 24 hrs. After incubation, samples were diluted 4 ml into 50 ml TSB to make E. coli stock. 200 μl samples were then placed into wells of a 96-microwell plate. All samples were prepared in TSB, (Blank) using TSB, ERGO (OXIS International), LF (Sigma Aldrich) and NLF were diluted to 1 mg/ml. The nitration reaction was prepared following the method reported by Selzle et al (Determination of nitration degrees for the birch pollen allergen Bet v 1. Analytical and Bioanalytical Chemistry 2013, 405(27):8945-49). According to this procedure, 400 μl aliquots of 5.0 mg/ml (±5%) LF in aqueous solution were pipetted into glass vials. […] Using the plate reader (Tecan Infinite, M1000 PRO). […]

[1] = ferrous iron (Fe++) binding capacity of LF; details: FIG. 3
Text: As noted above, LF binds ferrous iron (Fe++) and controls iron distribution throughout the body and its ability to bind to inflammatory and other cell membranes and impact the activities of these cells through its iron binding activities and other mechanisms. The inventors hypothesized that the antibacterial effect may be linked to the iron binding activity of LF and that this antibacterial effect may be disrupted by nitration.
However, sodium peroxinitrite caused changes that went far beyond the mere nitration of a few tyrosine residues to include destruction of tyrosine and tryptophan which at least in part were converted to unidentified reaction products. Nitration can occur as a consequence of the formation of reactive nitrogen species in the body and as a result of drug or chemical reactions, and/or environmental toxins in polluted air, water, or other routes of intake.

SMILES: C[N+](C)(C)[C@@H](Cc1c[nH]c(=S)[nH]1)C(=O)[O-] [ERGO, 3-(2-Sulfanylidene-1,3-dihydroimidazol-4-yl)-2-(trimethylazaniumyl)propanoate]
- growth of E. coli (E. coli (ATCC 25922); LF 1 mg/ml or 2 mg/ml, ERGO 5 mM or 50 mM, compared to growth of E. coli without additions, FIGS. 1A and 1B): reduced the growth of E. coli
- dependence of retained anti-bacterial activity on ERGO concentration (E. coli (ATCC 25922); LF exposed to nitrating agents, various concentrations of ERGO, FIG. 2): related to the concentration of ERGO added
- effect of ERGO on the ferrous iron (Fe++) binding capacity of LF [1]: does not appear that the ability of ERGO to increase the anti-bacterial activity of LF results from binding of Fe++ on LF

Reference: US11957737B2, “Methods of treating microbial infection and inflammation” (Colorado Seminary, Owner and Operator of University of …, priority 2017, dated 2024)
